Reference: patent publication US6972297B2, “2-Hydroxy-mutilin carbamate derivatives for antibacterial use” (SmithKline Beecham p.l.c., priority 2000, dated 2005)

Legend:
[1] = system: Staphylococcus aureus Oxford; assay: conventional MIC assay, Staphylococcus aureus Oxford; assay type: cell-based
Procedure: (§1) Compounds of the present invention were assessed for anti-bacterial activity in a conventional MIC assay against a range of pathogenic organisms.

[2] = system: Streptococcus pneumoniae 1629; assay: conventional MIC assay, Streptococcus pneumoniae 1629; assay type: cell-based
Procedure: as §1

[3] = system: Moraxella catarrhalis Ravasio; assay: conventional MIC assay, Moraxella catarrhalis Ravasio; assay type: cell-based
Procedure: as §1

[4] = system: Haemophilius influenzae Q1; assay: conventional MIC assay, Haemophilius influenzae Q1; assay type: cell-based
Procedure: as §1

[5] = intrinsic clearance in human liver microsome preparations; assay type: in vitro ADME; conditions: in the presence of human liver microsomes; R1=2-amino-4-pyridyl, R2=vinyl

What does the source list for `CC[C@]1(C)CC(OC(=O)NC(=O)c2cnc3[nH]c(=O)cnc3c2)[C@]2(C)C(C)CC[C@]3(C[C@H](O)C(=O)C23)[C@@H](C)[C@@H]1O` (stereo partly drawn) [Example 34, (3-Oxo-3,4-dihydropyrido[2,3-b]pyrazin-7-ylcarbonyl)carbamic Acid 19,20-dihydro-2-(S)-hydroxymutilin 14-ester]?
MIC [1]: ≤ 4 µg/mL; MIC [2]: ≤ 4 µg/mL; MIC [3]: ≤ 4 µg/mL; MIC [4]: ≤ 4 µg/mL

What does the source list for `CC[C@]1(C)CC(OC(=O)NC(=O)c2cnc(OC)nc2)[C@]2(C)C(C)CC[C@]3(C[C@H](O)C(=O)C23)[C@@H](C)[C@@H]1O` (stereo partly drawn) [Example 38, (2-Methoxypyrimidin-5-ylcarbonyl)carbamic Acid 19,20-dihydro-2-(S)-hydroxymutilin 14-ester]?
MIC [1]: ≤ 4 µg/mL; MIC [2]: ≤ 4 µg/mL; MIC [3]: ≤ 4 µg/mL; MIC [4]: ≤ 4 µg/mL

For `C=C[C@]1(C)C[C@@H](OC(=O)NC(=O)c2ccnc(N)c2)[C@]2(C)C(C)CC[C@]3(C[C@H](O)C(=O)C32)[C@@H](C)[C@@H]1O` (stereo partly shown) [Example 2], which “intrinsic clearance (CLi, a measure of rate of metabolism)” value [5] is on record?
The value was 6.5 ml/min/g liver.

For `C=C[C@]1(C)C[C@@H](OC(=O)NC(=O)c2cnc(N)c([N+](=O)[O-])c2)[C@]2(C)C(C)CC[C@]3(C[C@H](O)C(=O)C32)[C@@H](C)[C@@H]1O` (stereo partly drawn) [Example 22, (6-Amino-5-nitronicotinoyl)carbamic Acid 2-(S)-hydroxymutilin 14-ester], which MIC [1] is on record?
Its MIC is no more than 4 µg/mL.

And the MIC [2]?
Its MIC is no more than 4 µg/mL.

What about the MIC [3] of the same compound?
Its MIC is no more than 4 µg/mL.

And the MIC [4]?
The MIC was no more than 4 µg/mL.

For `CC[C@]1(C)C[C@@H](OC(=O)NC(=O)c2cccc(N)n2)[C@]2(C)C(C)CC[C@]3(C[C@H](O)C(=O)C32)[C@@H](C)[C@@H]1O` (stereo partly drawn) [Example 32, (6-aminopyridin-2-ylcarbonyl)carbamic Acid 19,20-dihydro-2-(S)-hydroxymutilin 14-ester], which MIC [1] is on record?
The MIC was no more than 4 µg/mL.

What about the MIC [2] of the same compound?
Its MIC is no more than 4 µg/mL.

And the MIC [3]?
The MIC was no more than 4 µg/mL.

What about the MIC [4] of the same compound?
The MIC was no more than 4 µg/mL.

What does the source list for `C=C[C@]1(C)C[C@@H](OC(=O)NC(=O)c2cc(OC)nc(N)n2)[C@]2(C)C(C)CC[C@]3(C[C@H](O)C(=O)C32)[C@@H](C)[C@@H]1O` (stereo partly drawn) [Example 23, (2-Amino-6-methoxypyrimidin-4-ylcarbonyl)carbamic Acid 2-(S)-hydroxymutilin 14-ester]?
MIC [1]: ≤ 4 µg/mL; MIC [2]: ≤ 4 µg/mL; MIC [3]: ≤ 4 µg/mL; MIC [4]: ≤ 4 µg/mL

For `CC[C@]1(C)CC(OC(=O)NC(=O)c2cnc(N)s2)[C@]2(C)C(C)CC[C@]3(C[C@H](O)C(=O)C23)[C@@H](C)[C@@H]1O` (stereo partly drawn) [Example 35, (2-Aminothiazol-5-ylcarbonyl)carbamic Acid 19,20-dihydro-2-(S)-hydroxymutilin 14-ester], which MIC [1] is on record?
Its MIC is no more than 4 µg/mL.

And the MIC [2]?
Its MIC is no more than 4 µg/mL.

And the MIC [3]?
The MIC was no more than 4 µg/mL.

What about the MIC [4] of the same compound?
Its MIC is no more than 4 µg/mL.

With `C=C[C@]1(C)C[C@@H](OC(=O)NC(=O)c2ccc(N)nc2)[C@]2(C)C(C)CC[C@]3(C[C@H](O)C(=O)C32)[C@@H](C)[C@@H]1O` (stereo partly shown) [Example 1] as the compound, how does the MIC [1] read?
The MIC was no more than 4 µg/mL.

What about the MIC [2] of the same compound?
The MIC was no more than 4 µg/mL.

What about the MIC [3] of the same compound?
The MIC was no more than 4 µg/mL.

What about the MIC [4] of the same compound?
The MIC was no more than 4 µg/mL.

Which MIC [1] does the source give for `CC[C@]1(C)CC(OC(=O)NC(=O)c2cnc(OC)c(N)c2)[C@]2(C)C(C)CC[C@]3(C[C@H](O)C(=O)C23)[C@@H](C)[C@@H]1O` (stereo partly drawn) [Example 36, (5-Amino-6-methoxynicotinoyl)carbamic Acid 19,20-dihydro-2-(S)-hydroxymutilin 14-ester] here?
The MIC was no more than 4 µg/mL.

And the MIC [2]?
Its MIC is no more than 4 µg/mL.

And the MIC [3]?
The MIC was no more than 4 µg/mL.

And the MIC [4]?
Its MIC is no more than 4 µg/mL.

With `C=C[C@]1(C)C[C@@H](OC(=O)NC(=O)c2ccc(N)nn2)[C@]2(C)C(C)CC[C@]3(C[C@H](O)C(=O)C32)[C@@H](C)[C@@H]1O.Cl` (stereo partly drawn) [Example 27, (3-Amino-6-pyridazinylcarbonyl)carbamic Acid 2-(S)-hydroxymutilin 14-ester Hydrochloride] as the compound, how does the MIC [1] read?
The MIC was no more than 4 µg/mL.

And the MIC [2]?
The MIC was no more than 4 µg/mL.

What about the MIC [3] of the same compound?
Its MIC is no more than 4 µg/mL.

And the MIC [4]?
The MIC was no more than 4 µg/mL.

Which MIC [1] does the source give for `CC[C@]1(C)CC(OC(=O)NC(=O)c2ccc(N)nc2)[C@]2(C)C(C)CC[C@]3(C[C@H](O)C(=O)C23)[C@@H](C)[C@@H]1O` (stereo partly drawn) [Example 39, (6-Aminonicotinoyl)carbamic Acid 19,20-dihydro-2-(S)-hydroxymutilin 14-ester] here?
Its MIC is no more than 4 µg/mL.

What about the MIC [2] of the same compound?
The MIC was no more than 4 µg/mL.

What about the MIC [3] of the same compound?
Its MIC is no more than 4 µg/mL.

And the MIC [4]?
Its MIC is no more than 4 µg/mL.

For `C=C[C@]1(C)C[C@@H](OC(=O)NC(=O)c2csc(C3CCN(CC(N)=O)CC3)n2)[C@]2(C)C(C)CC[C@]3(C[C@H](O)C(=O)C32)[C@@H](C)[C@@H]1O` (stereo partly drawn) [Example 30, [2-(1-Carboxamidomethylpiperidin-4-yl)thiazole-4-carbonyl]carbamic Acid 2-(S)-hydroxymutilin 14-ester], which MIC [1] is on record?
The MIC was no more than 4 µg/mL.

What about the MIC [2] of the same compound?
The MIC was no more than 4 µg/mL.

And the MIC [3]?
Its MIC is no more than 4 µg/mL.

What about the MIC [4] of the same compound?
The MIC was no more than 4 µg/mL.

Which results are given for `CC[C@]1(C)CC(OC(=O)NC(=O)c2cnc(NC)nc2)[C@]2(C)C(C)CC[C@]3(C[C@H](O)C(=O)C23)[C@@H](C)[C@@H]1O` (stereo partly drawn) [Example 37, (2-Methylaminopyrimidin-5-ylcarbonyl)carbamic Acid 19,20-dihydro-2-(S)-hydroxymutilin 14-ester]?
MIC [1]: ≤ 4 µg/mL; MIC [2]: ≤ 4 µg/mL; MIC [3]: ≤ 4 µg/mL; MIC [4]: ≤ 4 µg/mL
